PubChem BioAssay (NCI)
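These data come from cells grown in 96-well plates and exposed to compound for 48 hours at five concentrations. GI50 marks 50% less growth. TGI denotes the concentration required for complete inhibition of growth.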

Tests used:
Experiment in all cases: inhibition of tumour cell growth, NCI panel, 48 h
786-0 renal = test system: 786-0 renal
A498 renal = test system: A498 renal
A549 NSCLC = test system: A549 NSCLC
ACHN renal = test system: ACHN renal
BT-549 breast = test system: BT-549 breast
CAKI-1 renal = test system: CAKI-1 renal
CCRF-CEM leukemia = test system: CCRF-CEM leukemia
COLO 205 colon = test system: COLO 205 colon
DU-145 prostate = test system: DU-145 prostate
EKVX NSCLC = test system: EKVX NSCLC
HCC-2998 colon = test system: HCC-2998 colon
HCT-116 colon = test system: HCT-116 colon
HCT-15 colon = test system: HCT-15 colon
HL-60(TB) leukemia = test system: HL-60(TB) leukemia
HOP-62 NSCLC = test system: HOP-62 NSCLC
HOP-92 NSCLC = test system: HOP-92 NSCLC
HS 578T breast = test system: HS 578T breast
HT29 colon = test system: HT29 colon
IGROV1 ovarian = test system: IGROV1 ovarian
K-562 leukemia = test system: K-562 leukemia
KM12 colon = test system: KM12 colon
LOX IMVI melanoma = test system: LOX IMVI melanoma
M14 melanoma = test system: M14 melanoma
MALME-3M melanoma = test system: MALME-3M melanoma
MCF7 breast = test system: MCF7 breast
MDA-MB-231 breast = test system: MDA-MB-231 breast
MDA-MB-435 = test system: MDA-MB-435
MOLT-4 leukemia = test system: MOLT-4 leukemia
NCI-H226 lung = test system: NCI-H226 lung
NCI-H23 lung = test system: NCI-H23 lung
NCI-H460 lung = test system: NCI-H460 lung
NCI-H522 lung = test system: NCI-H522 lung
NCI/ADR-RES ovarian = test system: NCI/ADR-RES ovarian
OVCAR-3 ovarian = test system: OVCAR-3 ovarian
OVCAR-4 ovarian = test system: OVCAR-4 ovarian
OVCAR-5 ovarian = test system: OVCAR-5 ovarian
OVCAR-8 ovarian = test system: OVCAR-8 ovarian
PC-3 prostate = test system: PC-3 prostate
RPMI-8226 leukemia = test system: RPMI-8226 leukemia
RXF 393 renal = test system: RXF 393 renal
SF-268 CNS = test system: SF-268 CNS
SF-295 CNS = test system: SF-295 CNS
SF-539 CNS = test system: SF-539 CNS
SK-MEL-2 melanoma = test system: SK-MEL-2 melanoma
SK-MEL-28 melanoma = test system: SK-MEL-28 melanoma
SK-MEL-5 melanoma = test system: SK-MEL-5 melanoma
SK-OV-3 ovarian = test system: SK-OV-3 ovarian
SN12C renal = test system: SN12C renal
SNB-19 CNS = test system: SNB-19 CNS
SNB-75 CNS = test system: SNB-75 CNS
SR leukemia = test system: SR leukemia
SW-620 colon = test system: SW-620 colon
T-47D breast = test system: T-47D breast
TK-10 renal = test system: TK-10 renal
U251 CNS = test system: U251 CNS
UACC-257 melanoma = test system: UACC-257 melanoma
UACC-62 melanoma = test system: UACC-62 melanoma
UO-31 renal = test system: UO-31 renal
MDA-N = test system: MDA-N

Structure (SMILES): O=C(CCCCCCCCC(=O)N/N=C\c1cc(Cl)ccc1O)N/N=C\c1cc(Cl)ccc1O
- GI50 (786-0 renal): 0.287 µM
- TGI (786-0 renal): 15.5 µM
- GI50 (A498 renal): > 33.1 µM
- TGI (A498 renal): > 80.9 µM
- GI50 (A549 NSCLC): 0.98 µM
- TGI (A549 NSCLC): > 100 µM
- GI50 (ACHN renal): 0.175 µM
- TGI (ACHN renal): > 100 µM
- GI50 (BT-549 breast): 0.526 µM
- TGI (BT-549 breast): 96.8 µM
- GI50 (CAKI-1 renal): 0.251 µM
- TGI (CAKI-1 renal): > 100 µM
- GI50 (CCRF-CEM leukemia): 0.172 µM
- TGI (CCRF-CEM leukemia): 24.6 µM
- GI50 (COLO 205 colon): 3.19 µM
- TGI (COLO 205 colon): > 100 µM
- GI50 (DU-145 prostate): 0.495 µM
- TGI (DU-145 prostate): > 100 µM
- GI50 (EKVX NSCLC): 3.49 µM
- TGI (EKVX NSCLC): > 100 µM
- GI50 (HCC-2998 colon): 3.32 µM
- TGI (HCC-2998 colon): > 100 µM
- GI50 (HCT-116 colon): 0.308 µM
- TGI (HCT-116 colon): > 100 µM
- GI50 (HCT-15 colon): 0.251 µM
- TGI (HCT-15 colon): > 100 µM
- GI50 (HL-60(TB) leukemia): 0.164 µM
- TGI (HL-60(TB) leukemia): 0.571 µM
- GI50 (HOP-62 NSCLC): 0.284 µM
- TGI (HOP-62 NSCLC): > 100 µM
- GI50 (HOP-92 NSCLC): 0.105 µM
- TGI (HOP-92 NSCLC): 37.5 µM
- GI50 (HS 578T breast): 16.4 µM
- TGI (HS 578T breast): > 100 µM
- GI50 (HT29 colon): > 25.5 µM
- TGI (HT29 colon): > 100 µM
- GI50 (IGROV1 ovarian): 0.83 µM
- TGI (IGROV1 ovarian): > 100 µM
- GI50 (K-562 leukemia): 0.38 µM
- TGI (K-562 leukemia): 10.2 µM
- GI50 (KM12 colon): 0.594 µM
- TGI (KM12 colon): > 100 µM
- GI50 (LOX IMVI melanoma): 0.149 µM
- TGI (LOX IMVI melanoma): 7.41 µM
- GI50 (M14 melanoma): 0.221 µM
- TGI (M14 melanoma): 8.69 µM
- GI50 (MALME-3M melanoma): 0.462 µM
- TGI (MALME-3M melanoma): > 100 µM
- GI50 (MCF7 breast): 0.364 µM
- TGI (MCF7 breast): > 100 µM
- GI50 (MDA-MB-231 breast): 0.265 µM
- TGI (MDA-MB-231 breast): > 82.6 µM
- GI50 (MDA-MB-435): 0.625 µM
- TGI (MDA-MB-435): > 100 µM
- GI50 (MOLT-4 leukemia): 0.222 µM
- TGI (MOLT-4 leukemia): 17.6 µM
- GI50 (NCI-H226 lung): 0.5 µM
- TGI (NCI-H226 lung): > 36.2 µM
- GI50 (NCI-H23 lung): 0.636 µM
- TGI (NCI-H23 lung): > 67.3 µM
- GI50 (NCI-H460 lung): 0.162 µM
- TGI (NCI-H460 lung): 19.6 µM
- GI50 (NCI-H522 lung): 0.31 µM
- TGI (NCI-H522 lung): > 100 µM
- GI50 (NCI/ADR-RES ovarian): 0.294 µM
- GI50 (OVCAR-3 ovarian): 0.311 µM
- TGI (OVCAR-3 ovarian): > 100 µM
- GI50 (OVCAR-4 ovarian): 0.315 µM
- TGI (OVCAR-4 ovarian): > 100 µM
- GI50 (OVCAR-5 ovarian): 7.99 µM
- TGI (OVCAR-5 ovarian): > 100 µM
- GI50 (OVCAR-8 ovarian): 0.231 µM
- TGI (OVCAR-8 ovarian): 28.9 µM
- GI50 (PC-3 prostate): 0.864 µM
- TGI (PC-3 prostate): > 100 µM
- GI50 (RPMI-8226 leukemia): 0.847 µM
- TGI (RPMI-8226 leukemia): > 100 µM
- GI50 (RXF 393 renal): 0.208 µM
- TGI (RXF 393 renal): 7.78 µM
- GI50 (SF-268 CNS): 0.223 µM
- TGI (SF-268 CNS): > 100 µM
- GI50 (SF-295 CNS): 1.11 µM
- TGI (SF-295 CNS): > 46.5 µM
- GI50 (SF-539 CNS): 0.339 µM
- TGI (SF-539 CNS): > 46.8 µM
- GI50 (SK-MEL-2 melanoma): 0.441 µM
- TGI (SK-MEL-2 melanoma): 18.9 µM
- GI50 (SK-MEL-28 melanoma): 2.64 µM
- TGI (SK-MEL-28 melanoma): > 100 µM
- GI50 (SK-MEL-5 melanoma): 0.161 µM
- TGI (SK-MEL-5 melanoma): 0.659 µM
- GI50 (SK-OV-3 ovarian): 0.685 µM
- TGI (SK-OV-3 ovarian): 79.9 µM
- GI50 (SN12C renal): 0.427 µM
- TGI (SN12C renal): > 100 µM
- GI50 (SNB-19 CNS): 0.813 µM
- TGI (SNB-19 CNS): > 100 µM
- GI50 (SNB-75 CNS): 15.6 µM
- TGI (SNB-75 CNS): > 65.9 µM
- GI50 (SR leukemia): 0.0955 µM
- TGI (SR leukemia): 16.7 µM
- GI50 (SW-620 colon): 0.916 µM
- TGI (SW-620 colon): > 100 µM
- GI50 (T-47D breast): 1.48 µM
- TGI (T-47D breast): > 100 µM
- GI50 (TK-10 renal): 3.89 µM
- TGI (TK-10 renal): > 75.5 µM
- GI50 (U251 CNS): 0.192 µM
- TGI (U251 CNS): 25.9 µM
- GI50 (UACC-257 melanoma): 0.306 µM
- GI50 (UACC-62 melanoma): 0.235 µM
- GI50 (UO-31 renal): 0.152 µM
- TGI (UO-31 renal): > 100 µM

Structure (SMILES): CCCCCCCCCCCCCCCC1(OC)C[N+](C)(C)CCO1 (stereo not drawn)
- TGI (786-0 renal): 2.05 µM
- TGI (A498 renal): 67.5 µM
- TGI (A549 NSCLC): 3.45 µM
- TGI (ACHN renal): 5.8 µM
- TGI (COLO 205 colon): 2.58 µM
- TGI (DU-145 prostate): 5.9 µM
- TGI (EKVX NSCLC): 5.76 µM
- TGI (HCC-2998 colon): 6.18 µM
- TGI (HCT-116 colon): 3.38 µM
- TGI (HCT-15 colon): 28.9 µM
- TGI (HS 578T breast): 7.22 µM
- TGI (HT29 colon): 2.56 µM
- TGI (IGROV1 ovarian): 3.16 µM
- TGI (KM12 colon): 1.96 µM
- TGI (M14 melanoma): 3.13 µM
- TGI (MALME-3M melanoma): 4.7 µM
- TGI (MCF7 breast): 0.901 µM
- TGI (MDA-MB-231 breast): 4.8 µM
- TGI (MDA-MB-435): 3.63 µM
- TGI (MDA-N): 4.99 µM
- TGI (NCI-H226 lung): 3.6 µM
- TGI (NCI-H23 lung): 2.81 µM
- TGI (NCI-H460 lung): 5.57 µM
- TGI (NCI/ADR-RES ovarian): 41.7 µM
- TGI (OVCAR-4 ovarian): 5.96 µM
- TGI (OVCAR-5 ovarian): 6.08 µM
- TGI (PC-3 prostate): 6.21 µM
- TGI (RXF 393 renal): 2.39 µM
- TGI (SF-268 CNS): 5.04 µM
- TGI (SF-539 CNS): 3.49 µM
- TGI (SK-MEL-2 melanoma): 7.63 µM
- TGI (SK-MEL-28 melanoma): 6.33 µM
- TGI (SK-OV-3 ovarian): 21.8 µM
- TGI (SN12C renal): 3.94 µM
- TGI (SNB-75 CNS): 0.445 µM
- TGI (SW-620 colon): 26.4 µM
- TGI (T-47D breast): 33.6 µM
- TGI (TK-10 renal): 5.33 µM
- TGI (UACC-257 melanoma): 4.85 µM
- TGI (UACC-62 melanoma): 7.64 µM
